# From patent publication US20230077362A1 (CORTEVA AGRISCIENCE LLC, priority 2019, published 2023)
# Where two headings read alike, the source gives them in different places.
# Legend:
# Format in all cases: in vivo
# [1] = test system: Beet Armyworm (Spodoptera exigua) ("BAW"), second instar larvae; assay: Bioassay on beet armyworm (BAW), 128-well diet tray assay; details: Spodoptera exigua
# Summary of the method: (§1)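 Read-out: percent larval mortality per well, averaged over 8 wells. Incubation 25° C., 14:10 L:D photoperiod, 5–7 days, trays sealed with clear adhesive cover.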
# [2] = test system: Cabbage Looper (Trichoplusia ni) ("CL"), second instar larvae; assay: Bioassay on cabbage looper (CL), 128-well diet tray assay; details: Trichoplusia ni
# Summary of the method: as §1
# [3] = test system: Yellow Fever Mosquito "YFM" (Aedes aegypti), about 1 day-old larvae; assay: Bioassay on yellow fever mosquito (YFM), 96-well plate larval assay; details: for YFM rating: Table ABC, species YFM, mortality scored after 3 days, C = not tested, D = no activity noticed
# Protocol: Example C: Bioassays on Yellow Fever Mosquito “YFM” (Aedes aegypti)
# Certain molecules disclosed in this document were tested against YFM using procedures described in the following paragraph. In the reporting of the results, the “YFM Rating Table” was used (See Table Section).
# Master plates containing 400 μg of a molecule dissolved in 100 μL of dimethyl sulfoxide (DMSO) (equivalent to a 4000 ppm solution) are used. A master plate of assembled molecules contains 15 μL per well. To this plate, 135 μL of a 90:10 water:acetone mixture is added to each well. A robot (Biomek® NXP Laboratory Automation Workstation) is programmed to dispense 15 μL aspirations from the master plate into an empty 96-well shallow plate (“daughter” plate). There are 6 reps (“daughter” plates) created per master. The created daughter plates are then immediately infested with YFM larvae.
# The day before plates are to be treated, mosquito eggs are placed in Millipore water containing liver powder to begin hatching (4 g. into 400 mL). After the daughter plates are created using the robot, they are infested with 220 μL of the liver powder/larval mosquito mixture (about 1 day-old larvae). After plates are infested with mosquito larvae, a non-evaporative lid is used to cover the plate to reduce drying. Plates are held at room temperature for 3 days prior to grading. After 3 days, each well is observed and scored based on mortality.
# [4] = test system: Green Peach Aphid ("GPA") (Myzus persicae), wingless adult and nymph stages; assay: Bioassay on green peach aphid (GPA), foliar spray on infested cabbage seedlings; details: Myzus persicae, foliar, 72 h, read-out: GPA (Biological Results, rating)
# Summary of the method: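 Values are corrected % control, 100*(X−Y)/X, from live aphid counts per plant under a microscope, treated versus solvent-check plants. Four infested seedlings (20-50 GPA each) per treatment were sprayed to runoff and kept three days near 25° C at ambient RH.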
# [5] = read-out: BAW (Biological Results, rating)
# [6] = read-out: CL (Biological Results, rating)
SMILES,pest or weed control at 50 µg/cm2 ([1]; read-out: BAW rating) [%],pest or weed control at 50 µg/cm2 ([2]; read-out: CL rating) [%],YFM rating [3],"pest or weed control at 50 µg/cm2 [1, 5] [%]","pest or weed control at 50 µg/cm2 [2, 6] [%]","YFM (Biological Results, rating) ([3]; Yellow Fever Mosquito (Aedes aegypti) larvae, scored on mortality after 3 days, C = Not Tested)",pest or weed control at 200 µg/mL [4] [%]
"Cc1cc(N2C(=O)CS/C2=N\C(=O)Nc2ccc(-c3ncn(-c4ccc(OC(F)(F)F)cc4)n3)cc2F)c(C)cc1F [Compound J714, (Z)-1-(3-(4-Fluoro-2,5-dimethylphenyl)-4-oxothiazolidin-2-ylidene)-3-(2-fluoro-4-(1-(4-(trifluoromethoxy)phenyl)-1H-1,2,4-triazol-3-yl)phenyl)urea]",50 to 100,50 to 100,A (80-100),–,–,–,–
"Cc1ccc(COCc2ccccc2Cl)c(N2C(=O)CS/C2=N\C(=O)Nc2ccc(-c3ncn(-c4ccc(OC(F)(F)F)cc4)n3)cc2F)c1 [Compound J572, (Z)-1-(3-(2-(((2-Chlorobenzyl)oxy)methyl)-5-methylphenyl)-4-oxothiazolidin-2-ylidene)-3-(2-fluoro-4-(1-(4-(trifluoromethoxy)phenyl)-1H-1,2,4-triazol-3-yl)phenyl)urea]",50 to 100,50 to 100,A (80-100),–,–,–,–
"Cc1ccc(Cc2cccc(F)c2)c(N2C(=O)CS/C2=N\C(=O)Nc2ccc(-c3ncn(-c4ccc(C(F)(F)F)cc4)n3)cc2F)c1 [Compound J675, (Z)-1-(2-Fluoro-4-(1-(4-(trifluoromethyl)phenyl)-1H-1,2,4-triazol-3-yl)phenyl)-3-(3-(2-(3-fluorobenzyl)-5-methylphenyl)-4-oxothiazolidin-2-ylidene)urea]",50 to 100,50 to 100,A (80-100),–,–,–,–
"Cc1ccc(Cc2ccc(F)cc2)c(N2C(=O)CS/C2=N\C(=O)Nc2ccc(-c3ncn(-c4ccc(C(F)(F)F)cc4)n3)cc2F)c1 [Compound J673, (Z)-1-(2-Fluoro-4-(1-(4-(trifluoromethyl)phenyl)-1H-1,2,4-triazol-3-yl)phenyl)-3-(3-(2-(4-fluorobenzyl)-5-methylphenyl)-4-oxothiazolidin-2-ylidene)urea]",50 to 100,50 to 100,A (80-100),–,–,–,–
"Cc1ccc(COCc2cc(C(F)(F)F)cc(C(F)(F)F)c2)c(N2C(=O)CS/C2=N\C(=O)Nc2ccc(-c3ncn(-c4ccc(C(F)(F)F)cc4)n3)cc2F)c1 [Compound J748, (Z)-1-(3-(2-(((3,5-Bis(trifluoromethyl)benzyl)oxy)methyl)-5-methylphenyl)-4-oxothiazolidin-2-ylidene)-3-(2-fluoro-4-(1-(4-(trifluoromethyl)phenyl)-1H-1,2,4-triazol-3-yl)phenyl)urea]",–,–,A (80-100),–,–,–,–
"Cc1ccc(COCc2cc3c(C(F)(F)F)nn(C)c3s2)c(N2C(=O)CS/C2=N\C(=O)Nc2ccc(-c3ncn(-c4ccc(OC(F)(F)F)cc4)n3)cc2F)c1 [Compound J712, (Z)-1-(2-Fluoro-4-(1-(4-(trifluoromethoxy)phenyl)-1H-1,2,4-triazol-3-yl)phenyl)-3-(3-(5-methyl-2-(((1-methyl-3-(trifluoromethyl)-1H-thieno[2,3-c]pyrazol-5-yl)methoxy)methyl)phenyl)-4-oxothiazolidin-2-ylidene)urea]",50 to 100,50 to 100,A (80-100),–,–,–,–
"Cc1ccc(Cc2ccccc2F)c(N2C(=O)CS/C2=N\C(=O)Nc2ccc(-c3ncn(-c4ccc(C(F)(F)F)cc4)n3)cc2F)c1 [Compound J708, (Z)-1-(2-Fluoro-4-(1-(4-(trifluoromethyl)phenyl)-1H-1,2,4-triazol-3-yl)phenyl)-3-(3-(2-(2-fluorobenzyl)-5-methylphenyl)-4-oxothiazolidin-2-ylidene)urea]",50 to 100,50 to 100,A (80-100),–,–,–,–
"O=C(/N=C1\SCC(=O)N1c1cc(C(F)(F)F)ccc1COCc1ccccc1)Nc1ccc(-c2ncn(-c3ccc(OC(F)(F)F)cc3)n2)cc1F [Compound J741, (Z)-1-(3-(2-((Benzyloxy)methyl)-5-(trifluoromethyl)phenyl)-4-oxothiazolidin-2-ylidene)-3-(2-fluoro-4-(1-(4-(trifluoromethoxy)phenyl)-1H-1,2,4-triazol-3-yl)phenyl)urea]",–,–,A (80-100),–,–,–,–
"O=C(/N=C1\SCC(=O)N1c1ccccc1-c1ccccc1)Nc1ccc(-c2ncn(-c3ccc(OC(F)(F)F)cc3)n2)cc1F [Compound J720, (Z)-1-(3-([1,1′-Biphenyl]-2-yl)-4-oxothiazolidin-2-ylidene)-3-(2-fluoro-4-(1-(4-(trifluoromethoxy)phenyl)-1H-1,2,4-triazol-3-yl)phenyl)urea]",50 to 100,50 to 100,A (80-100),–,–,–,–
"Cc1ccc(COCc2ccccc2OC(F)(F)F)c(N2C(=O)CS/C2=N\C(=O)Nc2ccc(-c3ncn(-c4ccc(C(F)(F)F)cc4)n3)cc2F)c1 [Compound J746, (Z)-1-(2-Fluoro-4-(1-(4-(trifluoromethyl)phenyl)-1H-1,2,4-triazol-3-yl)phenyl)-3-(3-(5-methyl-2-(((2-(trifluoromethoxy)benzyl)oxy)methyl)phenyl)-4-oxothiazolidin-2-ylidene)urea]",50 to 100,–,A (80-100),–,–,–,–
"Cc1ccc([N+](=O)[O-])c(N2C(=O)CS/C2=N\C(=O)Nc2ccc(-c3ncn(-c4ccc(OC(F)(F)F)cc4)n3)cc2)c1 [Compound J313, (Z)-1-(3-(5-Methyl-2-nitrophenyl)-4-oxothiazolidin-2-ylidene)-3-(4-(1-(4-(trifluoromethoxy)phenyl)-1H-1,2,4-triazol-3-yl)phenyl)urea]",–,–,–,50 to 100,50 to 100,B (More than 0-Less than 80),–
"Cc1ccc(COCC(F)(F)F)c(N2C(=O)CS/C2=N\C(=O)Nc2ccc(-c3ncn(-c4ccnc(OCC(F)(F)F)c4)n3)cc2F)c1 [Compound J750, (Z)-1-(2-Fluoro-4-(1-(2-(2,2,2-trifluoroethoxy)pyridin-4-yl)-1H-1,2,4-triazol-3-yl)phenyl)-3-(3-(5-methyl-2-((2,2,2-trifluoroethoxy)methyl)phenyl)-4-oxothiazolidin-2-ylidene)urea]",50 to 100,50 to 100,A (80-100),–,–,–,–
"CCc1cc(-c2ncn(-c3ccc(OC(F)(F)F)cc3)n2)ccc1NC(=O)/N=C1\SCC(=O)N1c1cc(C)ccc1C(C)C [Compound J70, (Z)-1-(2-Ethyl-4-(1-(4-(trifluoromethoxy)phenyl)-1H-1,2,4-triazol-3-yl)phenyl)-3-(3-(2-isopropyl-5-methylphenyl)-4-oxothiazolidin-2-ylidene)urea]",–,–,–,50 to 100,50 to 100,–,0 to 80
"CC(C)c1ccc(N(C)C)cc1N1C(=O)CS/C1=N\C(=O)Nc1ccc(-c2ncn(-c3ccc(OC(F)(F)F)cc3)n2)cc1C(F)(F)F [Compound J116, (Z)-1-(3-(5-(Dimethylamino)-2-isopropylphenyl)-4-oxothiazolidin-2-ylidene)-3-(4-(1-(4-(trifluoromethoxy)phenyl)-1H-1,2,4-triazol-3-yl)-2-(trifluoromethyl)phenyl)urea]",–,–,–,50 to 100,50 to 100,–,0 to 80
"CC(C)c1ccc(N(C)C)cc1N1C(=O)CS/C1=N\C(=O)Nc1ccc(-c2ncn(-c3cccc(C(F)(F)F)c3)n2)cc1 [Compound J325, (Z)-1-(3-(5-(Dimethylamino)-2-isopropylphenyl)-4-oxothiazolidin-2-ylidene)-3-(4-(1-(3-(trifluoromethyl)phenyl)-1H-1,2,4-triazol-3-yl)phenyl)urea]",–,–,–,50 to 100,50 to 100,–,0 to 80
"CCc1cc(-c2ncn(-c3ccc(OC(F)(F)F)cc3)n2)ccc1NC(=O)/N=C1\SCC(=O)N1c1cc(C)ccc1OCCC(F)(F)F [Compound J73, (Z)-1-(2-Ethyl-4-(1-(4-(trifluoromethoxy)phenyl)-1H-1,2,4-triazol-3-yl)phenyl)-3-(3-(5-methyl-2-(3,3,3-trifluoropropoxy)phenyl)-4-oxothiazolidin-2-ylidene)urea]",–,–,–,50 to 100,50 to 100,–,0 to 80
"Cc1ccc(COCC(F)(F)F)c(N2C(=O)CS/C2=N\C(=O)Nc2ccc(-c3ncn(-c4ccc(OC(F)(F)F)cc4)n3)cc2Cl)c1 [Compound J194, (Z)-1-(2-Chloro-4-(1-(4-(trifluoromethoxy)phenyl)-1H-1,2,4-triazol-3-yl)phenyl)-3-(3-(5-methyl-2-((2,2,2-trifluoroethoxy)methyl)phenyl)-4-oxothiazolidin-2-ylidene)urea]",–,–,–,50 to 100,50 to 100,–,0 to 80
